Measurements as given in paper PMC9078399, “Discovery of N-cyclobutylaminoethoxyisoxazole derivatives as novel sigma-1 receptor ligands with neurite outgrowth efficacy in cells” (RSC Advances, 2018).
Entries after “also recorded” stand apart in the source; their conditions may differ.

Legend:
σ1 receptor [1] = target: σ1 receptor; parameters: method as in PMID 21278085, PMID 15170821, PMID 18647636, PMID 22935988, PMID 21967807; settings: representative σ1 receptor ligands, Fig. 1; cited from earlier work
σ1 receptor [2] = target: T1, σ1 receptor (Cavia porcellus, UniProt Q60492); experiment: Radioligand binding at σ1 receptor ([3H]-(+)-pentazocine, NIMH PDSP); parameters: species or system Guinea pig; settings: for Ki: [3H]-(+)-pentazocine, Guinea pig brain homogenate, mean ± SEM, three independent experiments; for Selectivity (Ki σ2/Ki σ1): ratio of Ki σ2 to Ki σ1
T1 construct: σ1 receptor, [^3H]-(+)-pentazocine, Guinea pig brain homogenate; from tissue; host or cells: Guinea pig brain homogenate
T1 sequence (Q60492 whole entry): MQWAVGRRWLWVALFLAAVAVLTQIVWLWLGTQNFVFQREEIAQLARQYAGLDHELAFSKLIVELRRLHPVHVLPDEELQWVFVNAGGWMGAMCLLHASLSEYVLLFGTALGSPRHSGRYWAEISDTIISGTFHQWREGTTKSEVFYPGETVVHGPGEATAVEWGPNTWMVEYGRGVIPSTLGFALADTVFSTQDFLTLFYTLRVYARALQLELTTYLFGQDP
Excerpt: (§1) In this study, [^3H] pentazocine and [^3H]DTG (6) were used as the radioligands at σ1 and σ2 receptors. Firstly, we examined the effects of changing the substituents on the benzene ring. […] Mono-halogen substitution on the benzene ring exemplified by compounds 17–20 generally retained affinity for σ1 receptor compared with compound 7. […] The derivatives 21–25 also maintained similar high affinities for the σ1 receptor upon incorporation of two halogen atoms on the benzene ring. However, this is also accompanied with higher binding affinity to the σ2 receptor. […]. Next, we examined the effects of removing the methyl group on the basic nitrogen atom. […] […]. […] The results for the secondary amines 28 and 29 indicate that the hydrogen bond donor on basic nitrogen atom was beneficial for increased binding affinity to the σ1 receptor.
(§2) Radioligand competition studies were carried out by the National Institute of Mental Health's Psychoactive Drug Screening Program, Contract #HHSN-271-2008-00025-C (NIMH PDSP). The general procedures are listed as follows:
(§3) All the test compounds solution (1 mg mL^−1) were prepared by dissolving in DMSO or buffer solvent (50 mM Tris–HCl, pH = 8.0). The filter-mats were presoaked in 0.5% aqueous polyethyleneimine solution for 2 h at rt before use. All binding experiments were carried out in poly-L-lysine-coated 96-well plate and the final test concentration (50 μM, 5 μM, 1.5 μM, 500 nM, 150 nM, 50 nM, 15 nM, 5 nM, 1.5 nM, 0.5 nM, 0.05 nM) were prepared by addition of Tris–HCl solution (50 mM, pH = 8.0). The following specific radioligands and tissue source were used: (a) σ1 receptor, [^3H]-(+)-pentazocine, Guinea pig brain homogenate; (b) σ2 receptor, [^3H]-DTG, PC-12 cells. 100 μL of corresponding radioligand solution, 100 μL test compound solution and 50 μL of the respective receptor preparation into each well of the plate (total volume 250 μL). During the incubation, the plates were shaken at a speed of 500–600 rpm at the specified temperature (σ1 receptor, 37 °C, 150 min; σ2 receptor, rt, 120 min). The incubation was followed by a rapid vacuum filtration through Whatman GF/B glass filters, and the filtrates were washed twice with 10 mL of cold buffer and transferred to the 6 mL scintillation vials. EcoScint scintillation fluid (4.0 mL) was added, and the radioactivity bound was measured using a Beckman LS 6500 liquid scintillation counter. All experiments were performed at least three times.
(§4) For experimental details please refer to the PDSP website http://pdsp.med.unc.edu/.[28]

σ2 receptor [3] = target: T2, σ2 receptor (Rattus norvegicus, UniProt Q5U3Y7); experiment: Radioligand binding at σ2 receptor ([3H]-DTG, NIMH PDSP); settings: for Ki: [3H] DTG, PC12 cells, mean ± SEM, three independent experiments; for Increase of binding affinity for σ2 receptor relative to compound 7: compared with parent compound 7
T2 construct: (b) σ2 receptor, [^3H]-DTG, PC-12 cells; endogenous in cells; host or cells: PC-12 cells
T2 sequence (Q5U3Y7 1-176): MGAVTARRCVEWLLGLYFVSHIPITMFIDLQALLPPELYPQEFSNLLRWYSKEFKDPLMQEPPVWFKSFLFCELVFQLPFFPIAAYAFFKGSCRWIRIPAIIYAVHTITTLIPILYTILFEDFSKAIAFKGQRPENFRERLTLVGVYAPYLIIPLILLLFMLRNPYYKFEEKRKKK
Excerpt: as §1, §2, §3, §4

[4] = target: DAT: dopamine transporter (Homo sapiens, UniProt Q01959); experiment: Radioligand binding at DAT ([3H] WIN35428)
Chain of DAT: dopamine transporter (Q01959 whole entry): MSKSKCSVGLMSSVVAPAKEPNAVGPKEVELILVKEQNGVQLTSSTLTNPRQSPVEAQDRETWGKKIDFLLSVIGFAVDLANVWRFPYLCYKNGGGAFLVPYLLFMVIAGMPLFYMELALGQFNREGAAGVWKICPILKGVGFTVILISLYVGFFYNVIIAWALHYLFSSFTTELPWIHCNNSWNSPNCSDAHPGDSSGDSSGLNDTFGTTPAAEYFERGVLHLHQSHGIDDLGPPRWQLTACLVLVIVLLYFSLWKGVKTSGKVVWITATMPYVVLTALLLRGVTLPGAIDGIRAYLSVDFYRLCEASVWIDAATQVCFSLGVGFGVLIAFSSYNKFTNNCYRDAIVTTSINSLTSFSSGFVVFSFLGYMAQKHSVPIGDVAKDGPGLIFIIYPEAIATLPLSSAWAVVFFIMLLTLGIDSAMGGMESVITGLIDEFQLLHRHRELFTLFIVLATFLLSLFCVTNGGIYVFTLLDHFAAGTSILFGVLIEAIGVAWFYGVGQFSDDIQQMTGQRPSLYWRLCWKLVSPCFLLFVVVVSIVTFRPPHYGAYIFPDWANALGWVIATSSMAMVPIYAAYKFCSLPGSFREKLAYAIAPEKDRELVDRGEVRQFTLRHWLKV
Method: (§5) In order to exclude the potential interference of other receptor pathways to the observed neuritogenesis efficacy, we assessed the binding affinities of compounds 7, 18, 22, 24, 25, 28 and 29 at the biogenic amine transporters (NET, DAT, and SERT).
as §2, §4

N1E-115 neuronal cells = experiment: Neurite outgrowth in N1E-115 cells; type: cell-based, mouse; settings: 10 μM in DMSO, four days, vs. vehicle (DMSO)
Method: Following the radioligand binding studies and CNS MPO calculations, all of the synthesized derivatives were further tested in cellular neuritogenesis studies. In this study, N1E-115 neuronal cells were used as a screening platform for assessing the neuritogenesis effects of candidate compounds.[31,32] All the derivatives and positive control (compound 7 and RC-33) were assessed at 10 μM concentration in DMSO, and vehicle group using DMSO alone.
N1E-115 cells, the mouse neuroblastoma cell lines, were obtained from the American Type Culture Collection (ATCC, Manassas, VA, USA). Undifferentiated N1E115 cells were cultured in DMEM complete medium with 10% fetal bovine serum, 100 U mL^−1 of penicillin, and 100 μg mL^−1 of streptomycin and maintained at 37 °C in a humidified incubator supplemented with 5% CO2. N1E-115 cells were seeded at a density of 1 × 10^4 cells per mL on poly-L-lysine-coated 96-well plates and grown with DMSO or different tested compounds (10 μM) in DMSO solution for four days. Four days after incubation, morphometric analysis was performed on digitized images of live cells taken under phase contrast illumination with an inverted microscope linked to a camera. Images of five fields per well were taken with an average of 100 cells per field. Cells that had at least one neurite with a length that was twice as long as the body diameter were expressed as a percentage of the total cells in the field. The counting was performed in a blinded manner. All experiments were performed at least five times.

[5] = target: NET: norepinephrine transporter (Homo sapiens, UniProt P23975); experiment: Radioligand binding at NET ([3H] nisoxetine)
Chain of NET: norepinephrine transporter (P23975 whole entry): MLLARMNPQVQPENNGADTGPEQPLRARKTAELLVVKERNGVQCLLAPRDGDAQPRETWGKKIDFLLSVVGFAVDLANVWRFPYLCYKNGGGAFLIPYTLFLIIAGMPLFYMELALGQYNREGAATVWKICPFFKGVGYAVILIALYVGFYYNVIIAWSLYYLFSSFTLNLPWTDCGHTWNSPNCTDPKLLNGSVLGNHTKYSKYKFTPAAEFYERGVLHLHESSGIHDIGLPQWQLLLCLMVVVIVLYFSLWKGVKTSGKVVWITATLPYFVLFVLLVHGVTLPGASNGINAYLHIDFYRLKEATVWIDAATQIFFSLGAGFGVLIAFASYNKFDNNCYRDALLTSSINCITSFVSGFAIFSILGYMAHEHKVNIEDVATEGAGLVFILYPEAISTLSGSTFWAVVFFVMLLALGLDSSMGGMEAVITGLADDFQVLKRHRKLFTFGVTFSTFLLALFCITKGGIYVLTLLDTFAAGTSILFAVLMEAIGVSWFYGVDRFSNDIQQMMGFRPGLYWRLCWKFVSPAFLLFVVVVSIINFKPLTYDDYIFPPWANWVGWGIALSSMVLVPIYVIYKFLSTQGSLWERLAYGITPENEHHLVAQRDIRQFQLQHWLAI
Method: as §5, §2, §4

σ2 receptor [6] = target: σ2 receptor; parameters: method as in PMID 21278085, PMID 15170821, PMID 18647636, PMID 22935988, PMID 21967807; settings: representative σ1 receptor ligands, Fig. 1; cited from earlier work

Ki (σ1 receptor [2]) [nM]	Selectivity (Ki σ2/Ki σ1) (σ1 receptor [2])	Ki (σ2 receptor [3]) [nM]	Compound	Ki (σ1 receptor [1]) [nM]	Ki [4] [nM]	Neurite outgrowth (neuritogenesis) effect (N1E-115 neuronal cells)	Ki [5] [nM]	Decrease of affinity for σ1 receptor relative to compound 7 (σ1 receptor [2]; compared with parent compound 7) [fold]	Increase of binding affinity for σ2 receptor relative to compound 7 (σ2 receptor [3])	Ki (σ2 receptor [6]) [nM]
			C[C@H](CCN1CCCCC1)c1ccc(-c2ccccc2)cc1 [(R)-RC-33]	1.8						
1.9	48	91.5 ± 7.5	CN(CCOc1cc(COc2cccc(F)c2)on1)C1CCC1.Cl [Compound 17, N-(2-((5-((3-Fluorophenoxy)methyl)isoxazol-3-yl)oxy)ethyl)-N-methylcyclobutanamine hydrochloride]							
0.8 ± 0.1	131	105 ± 21	CN(CCOc1cc(COc2cccc(Br)c2)on1)C1CCC1.Cl [Compound 19, N-(2-((5-((3-Bromophenoxy)methyl)isoxazol-3-yl)oxy)ethyl)-N-methylcyclobutanamine hydrochloride]							
5.5 ± 1.3	16	86.6 ± 16.8	CN(CCOc1cc(COc2ccc(Br)cc2)on1)C1CCC1.Cl [Compound 20, N-(2-((5-((4-Bromophenoxy)methyl)isoxazol-3-yl)oxy)ethyl)-N-methyl-cyclobutanamine hydrochloride]							
1.7 ± 0.3	90	153 ± 37	CN(CCOc1cc(COc2ccc(F)c(F)c2)on1)C1CCC1.Cl [Compound 21, N-(2-((5-((3,4-Difluorophenoxy)methyl)isoxazol-3-yl)oxy)ethyl)-N-methylcyclobutanamine hydrochloride]							
3.2 ± 1.6	11	36 ± 9.7	CN(CCOc1cc(COc2ccc(Cl)c(Cl)c2)on1)C1CCC1.Cl [Compound 23, N-(2-((5-((3,4-Dichlorophenoxy)methyl)isoxazol-3-yl)oxy)ethyl)-N-methylcyclobutanamine hydrochloride]							
4 ± 1.2	9.5	38 ± 2	CN(CCOc1cc(COc2cccc(C(F)(F)F)c2)on1)C1CCC1.Cl [Compound 26, N-Methyl-N-(2-((5-((3-(trifluoromethyl)phenoxy)methyl)isoxazol-3-yl)oxy)ethyl)cyclobutanamine hydrochloride]			better efficacy than other mono-substituted compounds				
4.2 ± 1.9	29.5	124 ± 68	Cc1cccc(OCc2cc(OCCN(C)C3CCC3)no2)c1.Cl [Compound 27, N-Methyl-N-(2-((5-((m-tolyloxy)methyl)isoxazol-3-yl)oxy)ethyl)cyclobutanamine hydrochloride]						3 fold	
16 ± 5	3.3	53.5 ± 0.5	Cl.c1ccc(OCc2cc(OCCN(C3CCC3)C3CCC3)no2)cc1 [Compound 30, N-Cyclobutyl-N-(2-((5-(phenoxymethyl)isoxazol-3-yl)oxy)ethyl)cyclobutanamine hydrochloride]							
			CCCN(CCC)CCc1ccc(OC)c(OCCc2ccccc2)c1 [NE-100]	1.03						212
			O=C(OCCN1CCOCC1)C1(c2ccccc2)CCCCC1 [PRE-084]							> 10000

Compound	Ki (σ1 receptor [2]) [nM]	Selectivity (Ki σ2/Ki σ1) (σ1 receptor [2])	Ki (σ2 receptor [3]) [nM]	Ki (σ1 receptor [1]) [nM]	Ki [4] [nM]	Neurite outgrowth (neuritogenesis) effect (N1E-115 neuronal cells)	Ki [5] [nM]	Decrease of affinity for σ1 receptor relative to compound 7 (σ1 receptor [2]; compared with parent compound 7) [fold]	Increase of binding affinity for σ2 receptor relative to compound 7 (σ2 receptor [3])	Ki (σ2 receptor [6]) [nM]
CN(CCOc1cc(COc2ccc(F)cc2)on1)C1CCC1.Cl [Compound 18, N-(2-((5-((4-Fluorophenoxy)methyl)isoxazol-3-yl)oxy)ethyl)-N-methylcyclobutanamine hydrochloride]	0.9 ± 0.1	87	78.5 ± 19.5		5630	preferable neurite outgrowth effects compared to the parent compound 7 and positive control RC-33; also recorded: significant neuritogenesis effects				
CN(CCOc1cc(COc2cc(F)cc(F)c2)on1)C1CCC1.Cl [Compound 22, N-(2-((5-((3,5-Difluorophenoxy)methyl)isoxazol-3-yl)oxy)ethyl)-N-methylcyclobutanamine hydrochloride]	2.4 ± 1.2	24	57 ± 20.1		> 10000	preferable neurite outgrowth effects compared to the parent compound 7 and positive control RC-33; also recorded: significant neuritogenesis effects	2880			
CN(CCOc1cc(COc2cc(Cl)cc(Cl)c2)on1)C1CCC1.Cl [Compound 24, N-(2-((5-((3,5-Dichlorophenoxy)methyl)isoxazol-3-yl)oxy)ethyl)-N-methylcyclobutanamine hydrochloride]	7.8 ± 3.2	3.0	22.8 ± 11.1		1810	preferable neurite outgrowth effects compared to the parent compound 7 and positive control RC-33; also recorded: significant neuritogenesis effects	1610	4	more than 10 fold	
CN(CCOc1cc(COc2ccc(F)c(Cl)c2)on1)C1CCC1.Cl [Compound 25, N-(2-((5-((3-Chloro-4-fluorophenoxy)methyl)isoxazol-3-yl)oxy)ethyl)-N-methylcyclobutanamine hydrochloride]	1.3 ± 0.4	25	32 ± 6		> 10000	preferable neurite outgrowth effects compared to the parent compound 7 and positive control RC-33; also recorded: significant neuritogenesis effects	1780			
Cl.c1ccc(OCc2cc(OCCNC3CCC3)no2)cc1 [Compound 28, N-(2-((5-(Phenoxymethyl)isoxazol-3-yl)oxy)ethyl)cyclobutanamine hydrochloride]	0.2	990	198 ± 64			preferable neurite outgrowth effects compared to the parent compound 7 and positive control RC-33; also recorded: significant neuritogenesis effects	7100			
Cl.Clc1cccc(OCc2cc(OCCNC3CCC3)no2)c1 [Compound 29, N-(2-((5-((3-Chlorophenoxy)methyl)isoxazol-3-yl)oxy)ethyl)cyclobutanamine hydrochloride]	0.4 ± 0.1	161	64.5 ± 13.2		1520	preferable neurite outgrowth effects compared to the parent compound 7 and positive control RC-33; also recorded: significant neuritogenesis effects	600			
